Measured values taken from BindingDB's records for doi:10.1126/science.279.5347.77 (Abbott Laboratories, 1998).
pKi: −log10 of the molar value.

Target: Neuronal acetylcholine receptor subunit alpha-4 (Rattus norvegicus, UniProt P09483)
Sequence (P09483 whole entry): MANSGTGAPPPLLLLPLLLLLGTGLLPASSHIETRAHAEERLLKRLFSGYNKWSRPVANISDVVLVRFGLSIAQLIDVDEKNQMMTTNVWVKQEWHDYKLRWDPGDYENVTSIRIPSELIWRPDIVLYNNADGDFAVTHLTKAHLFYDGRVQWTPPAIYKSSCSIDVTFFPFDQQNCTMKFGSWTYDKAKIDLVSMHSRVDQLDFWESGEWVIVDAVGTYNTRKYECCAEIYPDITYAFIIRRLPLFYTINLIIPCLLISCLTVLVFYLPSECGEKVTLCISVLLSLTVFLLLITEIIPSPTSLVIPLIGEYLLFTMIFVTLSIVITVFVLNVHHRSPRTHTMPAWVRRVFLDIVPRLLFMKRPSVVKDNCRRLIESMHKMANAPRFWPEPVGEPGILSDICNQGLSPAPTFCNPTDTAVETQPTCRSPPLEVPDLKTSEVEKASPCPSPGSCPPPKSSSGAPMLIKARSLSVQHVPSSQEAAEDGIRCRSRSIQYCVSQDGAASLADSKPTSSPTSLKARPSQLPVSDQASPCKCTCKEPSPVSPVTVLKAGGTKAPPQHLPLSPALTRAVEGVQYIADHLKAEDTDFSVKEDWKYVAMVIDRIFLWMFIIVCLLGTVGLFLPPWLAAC

## Clc1ccc(OC[C@@H]2CCN2)cn1
  pKi: 10.52
